The source of these data is publication PMC11180509 (The Journal of Clinical Endocrinology and Metabolism, 2024).

A short description of this data set: Plasma concentration of intact GIP after subcutaneous GIP injection. It is filed as in vivo, human.

Regarding `CC[C@H](C)[C@H](NC(=O)[C@H](CO)NC(=O)[C@H](Cc1ccc(O)cc1)NC(=O)[C@H](CC(=O)O)NC(=O)[C@H](CO)NC(=O)[C@@H](NC(=O)[C@H](Cc1ccccc1)NC(=O)[C@@H](NC(=O)CNC(=O)[C@H](CCC(=O)O)NC(=O)[C@H](C)NC(=O)[C@@H](N)Cc1ccc(O)cc1)[C@@H](C)O)[C@@H](C)CC)C(=O)N[C@@H](C)C(=O)N[C@@H](CCSC)C(=O)N[C@@H](CC(=O)O)C(=O)N[C@@H](CCCCN)C(=O)N[C@H](C(=O)N[C@@H](Cc1c[nH]cn1)C(=O)N[C@@H](CCC(N)=O)C(=O)N[C@@H](CCC(N)=O)C(=O)N[C@@H](CC(=O)O)C(=O)N[C@@H](Cc1ccccc1)C(=O)N[C@H](C(=O)N[C@@H](CC(N)=O)C(=O)N[C@@H](Cc1c[nH]c2ccccc12)C(=O)N[C@@H](CC(C)C)C(=O)N[C@@H](CC(C)C)C(=O)N[C@@H](C)C(=O)N[C@@H](CCC(N)=O)C(=O)N[C@@H](CCCCN)C(=O)NCC(=O)N[C@@H](CCCCN)C(=O)N[C@@H](CCCCN)C(=O)N[C@@H](CC(N)=O)C(=O)N[C@@H](CC(=O)O)C(=O)N[C@@H](Cc1c[nH]c2ccccc12)C(=O)N[C@@H](CCCCN)C(=O)N[C@@H](Cc1c[nH]cn1)C(=O)N[C@@H](CC(N)=O)C(=O)N[C@H](C(=O)N[C@H](C(=O)N[C@@H](CCC(N)=O)C(=O)O)[C@@H](C)O)[C@@H](C)CC)C(C)C)[C@@H](C)CC` [GIP, Human GIP(1-42)], the “Time until plasma intact GIP returned to basal level” value (fasting men with T2D, n = 10, 200 µg GIP subcutaneous bolus) was “about 150 minutes”. Besides, the Tmax (male, human, plasma, sc, 200 ug) was 30 min. The Cmax (male, human, plasma, sc, 200 ug, SEM) came out at 0.055 ± 0.0058 nM.

One may read the Tmax as the time at which the peak concentration occurs. In general, Cmax refers to the peak of the concentration-time curve.
